{
  "source": "patent US12269816B2",
  "about": "“Benzothiophene compound, preparation method therefor and use thereof” (SICHUAN KELUN-BIOTECH BIOPHARMACEUTICAL CO., LTD., priority 2019, dated 2025)",
  "tested_on": "MC38 mouse colon cancer allograft tumor model",
  "assay": "In vivo efficacy in the MC38 mouse colon cancer allograft tumor model",
  "conditions": "10 μg i.t.; for Tumor Volume, Day 0, Dosing side / Tumor Volume, Day 0, Non-dosing side: baseline at start of dosing; for Tumor Volume, Day 0, Dosing side / Tumor Volume, Day 0, Non-dosing side / Tumor Volume, Day 18, Dosing side / Tumor Volume, Day 18, Non-dosing side: mean ± SEM, n = 8; for Tumor Volume, Day 0, Dosing side / Tumor Volume, Day 0, Non-dosing side / Tumor Volume, Day 18, Dosing side / TGIvolume, Day 18, Dosing side: BIW×2; for Tumor Volume, Day 18, Non-dosing side / TGIvolume, Day 18, Non-dosing side: BIW×2 on the other side; for TGIvolume, Day 18, Dosing side / TGIvolume, Day 18, Non-dosing side: tumor volume inhibitory rate",
  "protocol": "In this experimental example, the changes in tumor volume and tumor weight of an MC38 mouse colon cancer transplanted tumor model were measured and recorded after intratumoral injection (i.t.) of compound 6 or compound 8, so as to test the efficacy of each test compound.\nExperimental cell strain: Mouse colon cancer MC38 cells (Nanjing Cobioer) were cultured in a 37° C., 5% CO2 incubator (medium: RPMI-1640 (Hyclone) containing 10% fetal bovine serum (Gibco)). Trypsin-EDTA (Hyclone) was used for routine digestion and passage. When the cells were in the exponential phase with a saturation of […], the cells were collected and counted.\nExperimental animals: C57BL/6J mice, 6-8 weeks old, female, weighing 18-20 grams. All mice were purchased from Beijing Vital River Laboratory Animal Technology Co., Ltd., and kept in a special pathogen-free (SPF) animal room.\nThe MC38 cells were resuspended in phosphate buffered saline (PBS) at a density of 5×10^6 cells/mL. 0.1 mL of PBS (containing 5×10^5 MC38 cells) was inoculated subcutaneously at the position of scapula at the right and left back of each mouse. When the average volume of the tumors at the left and right sides reached about 100 mm^3, the mice were randomly grouped according to the volumes of the tumors at the left and right sides.\nWhen the average volume of the subcutaneously transplanted tumors reached about 100 mm^3, the mice were randomly grouped according to the volume of the tumors at the left and right sides, with 8 in each group. Administration was performed on the tumors at the right side via intratumoral injection at an administration frequency of BIW×2 for 2 weeks in total, while no administration was performed on the tumors at the left side. After administration, the volumes of tumors at the left and right sides were measured twice a week, and the death of the animals was observed every day.\nThe anti-tumor efficacy of the test compound was evaluated by the tumor volume inhibitory rate TGIvolume (%). The tumor volume was measured with a vernier caliper. The tumor volume is calculated according to the formula: V=0.5×a×b^2, wherein “a” and “b” represent the long diameter and short diameter of the tumor, respectively. The tumor volume inhibitory rate TGIvolume (%)=[(1−(the average tumor volume at the end of dosing to a dosing group−the average tumor volume at the start of dosing to the dosing group)/(the average tumor volume at the end of dosing to a vehicle control group−the average tumor volume at the start of dosing to the vehicle control group)]×100%. When the tumor volume at the end of dosing was smaller than the tumor volume at the start of dosing (i.e., tumor regression), TGIvolume (%)=[1−(the average tumor volume at the end of dosing to a dosing group−average the tumor volume at the start of dosing to the dosing group)/the average tumor volume at the start of dosing to the dosing group]×100%.\nA statistical analysis was performed based on the tumor volume at the end of the experiment using the Graphpad Prism software. A comparison between the two groups was analyzed by Student's t-test. When P<0.05, it was considered as having a significant difference.",
  "data": [
    {"smiles": "COc1cc2sc(C(=O)CCC(=O)O)cc2cc1OCCCOc1cc2cc(C(=O)N(C)CCC(=O)O)sc2cc1OC", "note": "[Compound 8, 4-(5-(3-((2-((2-carboxyethyl)(methyl)carbamoyl)-6-methoxybenzo[b]thiophen-5-yl)oxy)propoxy)-6-methoxybenzo[b]thiophen-2-yl)-4-oxobutanoic Acid]", "values": [
      {"measurement": "Tumor Volume, Day 0, Dosing side", "value": "113.24 ± 12.33", "unit": "mm^3"},
      {"measurement": "Tumor Volume, Day 0, Non-dosing side", "value": "96.60 ± 11.50", "unit": "mm^3"},
      {"measurement": "Tumor Volume, Day 18, Dosing side", "value": "0.00 ± 0.00", "unit": "mm^3"},
      {"measurement": "Tumor Volume, Day 18, Non-dosing side", "value": "666.08 ± 100.92", "unit": "mm^3"},
      {"measurement": "TGIvolume, Day 18, Dosing side", "value": 200.00, "unit": "%"},
      {"measurement": "TGIvolume, Day 18, Non-dosing side", "value": 58.09, "unit": "%"}
    ]},
    {"smiles": "COc1cc2sc(C(=O)CCC(=O)O)cc2cc1OCCCOc1cc2sc(C(=O)N(C)CCC(=O)O)cc2cc1OC", "note": "[Compound 6, 4-(5-(3-((2-((2-carboxyethyl)(methyl)carbamoyl)-5-methoxybenzo[b]thiophen-6-yl)oxy)propoxy)-6-methoxybenzo[b]thiophen-2-yl)-4-oxobutanoic acid]", "values": [
      {"measurement": "Tumor Volume, Day 0, Dosing side", "value": "112.09 ± 11.95", "unit": "mm^3"},
      {"measurement": "Tumor Volume, Day 0, Non-dosing side", "value": "96.07 ± 10.17", "unit": "mm^3"},
      {"measurement": "Tumor Volume, Day 18, Dosing side", "value": "105.10 ± 74.74", "unit": "mm^3"},
      {"measurement": "Tumor Volume, Day 18, Non-dosing side", "value": "760.69 ± 174.22", "unit": "mm^3"},
      {"measurement": "TGIvolume, Day 18, Dosing side", "value": 106.24, "unit": "%"},
      {"measurement": "TGIvolume, Day 18, Non-dosing side", "value": 51.09, "unit": "%"}
    ]}
  ]
}
